The source of these data is patent publication US11542233B2, “Compounds, compositions and methods of use” (Aquinnah Pharmaceuticals, Inc., priority 2016, dated 2023).

For this assay, the system named is TDP-43 aggregation in PC12 cells stably expressing GFP-tagged mutant TDP-43 (TDP-43^Q33IK::eGFP). The assay can be described thus: In vitro efficacy assay: inhibition of TDP-43 inclusions, concentration-response, fluorescence microscopy. As to conditions: Rattus norvegicus, PC-12, PC12 cells, 1 hour pre-treatment, 15 μM sodium arsenite for 23 hours, 10-point dose response curve. In kind it is cell-based. An outline of the steps: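 PC12 cells stably expressing TDP-43^Q33IK::eGFP pre-treated 1 h with compound, then stressed with 15 μM sodium arsenite for 23 h. Fluorescence microscopy gave the fraction of GFP-positive cells bearing aggregates; IC50 from concentration-response, reported in bins: A <100 nM, B 100–500 nM, C 500 nM–2 μM, D >2 μM.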

pIC50: −log10 of the molar value. A value given as a limit tells only on which side of the number the result lay.

A word on the pIC50: it is −log10 of the IC50, conventionally taken in molar units. As for `CCN(C(=O)c1cc2c([nH]1)CCCO2)[C@H]1CCC[C@@H](NCc2ccccc2)C1` [Compound 511, N-((1S,3R)-3-(benzylamino)cyclohexyl)-N-ethyl-1,5,6,7-tetrahydropyrano[3,2-b]pyrrole-2-carboxamide], the pIC50 is 6.30 to 7.00.
Take `CCN(C(=O)c1cc2ccccc2[nH]1)[C@H]1CCC[C@@H](N[C@@H](c2cncnc2)C(F)(F)F)C1` (single isomer, unassigned) [Compound 413]: the pIC50 was 5.70 to 6.30.
Under `CCN(C(=O)c1cc2cc(C#N)ccc2[nH]1)[C@H]1CCC[C@@H](NCc2oc3ccccc3c2C#N)C1` [Compound 536, 5-cyano-N-((1S,3R)-3-(((3-cyanobenzofuran-2-yl)methyl)amino)cyclohexyl)-N-ethyl-1H-indole-2-carboxamide] stands above 7.00; under `O=C(c1cc2ccccc2[nH]1)N(CC(F)(F)F)[C@H]1CCC[C@H](NCc2cccc(F)c2)C1` [Compound 172, N-((1S,3S)-3-((3-fluorobenzyl)amino)cyclohexyl)-N-(2,2,2-trifluoroethyl)-1H-indole-2-carboxamide], 5.70 to 6.30.
The same measure for `CCN(C(=O)c1cc2c(OC)cccc2[nH]1)[C@H]1CCC[C@@H](NCc2oc3ccccc3c2C#N)C1` [Compound 498]: above 7.00.
Under `CCN(C(=O)c1cc2ccccc2[nH]1)[C@H]1CCC[C@@H](NCc2ccc3ncoc3c2)C1` [Compound 464, N-((1S,3R)-3-((benzo[d]oxazol-6-ylmethyl)amino)cyclohexyl)-N-ethyl-1H-indole-2-carboxamide] stands above 7.00.
Consider `CCN(C(=O)c1cc2ccccc2[nH]1)[C@H]1CCC[C@@H](NCc2cnc(OC)nc2)C1` [Compound 132], for which the pIC50 is above 7.00.
Under `CCN(C(=O)c1nc2cc(F)ccc2[nH]1)[C@H]1CCC[C@@H](NCc2cccc(C#N)c2)C1` [Compound 528] stands above 7.00; under `CCN(C(=O)c1cc2ccccc2[nH]1)[C@H]1CCC[C@@H](NCc2ccc(Cl)cc2)C1` [Compound 135], above 7.00; under `C#CCOc1ccc(CN[C@@H]2CCC[C@H](N(CC)C(=O)c3nc4cc([N+](=O)[O-])ccc4[nH]3)C2)cc1` [Compound 561, N-ethyl-5-nitro-N-((1S,3R)-3-((4-(prop-2-yn-1-yloxy)benzyl)amino)cyclohexyl)-1H-benzo[d]imidazole-2-carboxamide], above 7.00.
In the case of `CCN(C(=O)c1cc2ccccc2[nH]1)[C@H]1CCC[C@@H](NCc2cccc(Cl)c2)C1` [Compound 134], the pIC50 was above 7.00.
As for `CCN(C(=O)c1nc2ccccc2[nH]1)[C@H]1CCC[C@@H](NCc2cn3ccccc3n2)C1` [Compound 494, N-ethyl-N-((1S,3R)-3-((imidazo[1,2-a]pyridin-2-ylmethyl)amino)cyclohexyl)-1H-benzo[d]imidazole-2-carboxamide], the pIC50 is above 7.00.
The same measure for `CCN(C(=O)c1cc2ccccc2[nH]1)[C@H]1CCC[C@@H](N(C)Cc2ccccc2)C1` [Compound 105, N-((1S,3R)-3-(benzyl(methyl)amino)cyclohexyl)-N-ethyl-1H-indole-2-carboxamide]: 6.30 to 7.00; for `CCN(C(=O)c1nc2cc(C#N)ccc2[nH]1)[C@H]1CCC[C@@H](NCc2ccc(F)cc2)C1` [Compound 519]: above 7.00.
Under `CCN(C(=O)c1cc2ccccc2[nH]1)[C@H]1CCC[C@@H](NCc2conc2C2CC2)C1` [Compound 456] stands above 7.00; under `C#CCOc1cccc(CN[C@@H]2CCC[C@H](N(CC)C(=O)c3nc4c(N)cccc4[nH]3)C2)c1` [Compound 568], above 7.00; under `O=C(c1cc2ncccc2[nH]1)N(CC(F)(F)F)[C@H]1CCC[C@@H](NCc2cccc(F)c2)C1` [Compound 422, N-((1S,3R)-3-((3-fluorobenzyl)amino)cyclohexyl)-N-(2,2,2-trifluoroethyl)-1H-pyrrolo[3,2-b]pyridine-2-carboxamide], above 7.00.
In the case of `CCN(C(=O)c1nc2ccccc2[nH]1)[C@H]1CCC[C@@H](NCc2cc(C3CC3)no2)C1` [Compound 495, N-((1S,3R)-3-(((3-cyclopropylisoxazol-5-yl)methyl)amino)cyclohexyl)-N-ethyl-1H-benzo[d]imidazole-2-carboxamide], the negative logarithm of the IC50 (pIC50) was above 7.00.
The same measure for `CCN(C(=O)c1cc2ncccc2[nH]1)[C@H]1CCC[C@@H](NCc2cc(C)no2)C1` [Compound 437]: above 7.00.
Consider `CCN(C(=O)c1cc2ncccc2[nH]1)[C@H]1CCC[C@@H](NCc2ccc3ocnc3c2)C1` [Compound 443], for which the negative logarithm of the IC50 (pIC50) is above 7.00.
With `CCN(C(=O)c1nc2ccccc2[nH]1)[C@H]1CCC[C@@H](NCc2cc3ccccn3c2)C1` [Compound 493], the negative-log IC50 (pIC50) was above 7.00.
Under `CCN(C(=O)c1nc2ccccc2[nH]1)[C@H]1CCC[C@@H](NCc2oc3ccccc3c2C)C1` [Compound 476] stands above 7.00.
As for `CCN(C(=O)c1cc2ccccc2[nH]1)[C@H]1COC[C@@H](N[C@@H]2CCc3ccccc32)C1` [Compound 504, N-((3R,5S)-5-(((R)-2,3-dihydro-1H-inden-1-yl)amino)tetrahydro-2H-pyran-3-yl)-N-ethyl-1H-indole-2-carboxamide], the negative logarithm of the IC50 (pIC50) is above 7.00.
`O=C(c1cc2ccccc2[nH]1)N(CC(F)(F)F)[C@H]1CCC[C@H](NCc2ccccc2)C1` [Compound 178]: the negative-log IC50 (pIC50) was 5.70 to 6.30.
The same measure for `CCN(C(=O)c1cc2ncccc2[nH]1)[C@H]1CCC[C@@H](NCc2ccc3nsnc3c2)C1` [Compound 442]: above 7.00; for `CCN(C(=O)c1cc2ccccc2[nH]1)[C@H]1CCC[C@@H](NC(=O)c2ccccc2)C1` [Compound 200, N-((1S,3R)-3-benzamidocyclohexyl)-N-ethyl-1H-indole-2-carboxamide]: below 5.70; for `C#CCOc1ccc(CN[C@@H]2CCC[C@H](N(CC)C(=O)c3nc4cc(N)ccc4[nH]3)C2)cc1` [Compound 562, 5-amino-N-ethyl-N-((1S,3R)-3-((4-(prop-2-yn-1-yloxy)benzyl)amino)cyclohexyl)-1H-benzo[d]imidazole-2-carboxamide]: 5.70 to 6.30.
Under `CCN(C(=O)c1cc2ccccc2[nH]1)[C@H]1CCC[C@@H](NCc2ccc(N=[N+]=[N-])cc2)C1` [Compound 317] stands above 7.00.
Under `CCN(C(=O)c1cc2ncccc2[nH]1)[C@H]1CCC[C@H](NC(C)(C)c2ccc(OC)cc2)C1` [Compound 409] stands 5.70 to 6.30.
In the case of `O=C(c1cc2ccccc2[nH]1)N(CC(F)(F)F)[C@H]1CCC[C@@H](NCc2ccncc2)C1` [Compound 177], the negative logarithm of the IC50 (pIC50) is 6.30 to 7.00.
The same measure for `CCN(C(=O)c1cc2ncccc2[nH]1)[C@H]1CCC[C@@H](NCc2cc(C(C)C)no2)C1` [Compound 470]: above 7.00.
Under `CCN(C(=O)c1nc2ccccc2[nH]1)[C@H]1CCC[C@@H](NCc2nc3ccccc3s2)C1` [Compound 488] stands above 7.00; under `CCN(C(=O)c1nc2cc(C(F)(F)F)ccc2[nH]1)[C@H]1CCC[C@@H](NCc2ccccc2)C1` [Compound 545], above 7.00.
Under `CCN(C(=O)c1nc2ccccc2[nH]1)[C@H]1CCC[C@@H](NCc2ccc3oc(C)nc3c2)C1` [Compound 531] stands 6.30 to 7.00; under `CCN(C(=O)c1cc2ncccc2[nH]1)[C@H]1CCC[C@@H](NCc2cc3ccccc3o2)C1` [Compound 444], above 7.00; under `CCN(C(=O)c1cc2ccccc2[nH]1)[C@H]1CCC[C@@H](NCc2cc3ccccc3s2)C1` [Compound 450], above 7.00.
In the case of `CCN(C(=O)c1cc2ccccc2[nH]1)C1CCC[C@H](N[C@H]2CCc3ccccc32)C1` (stereo partly shown) [Compound 509], the pIC50 is below 5.70.
The same measure for `CCN(C(=O)c1cc2ccccc2[nH]1)[C@H]1CCC[C@@H](NCc2ccc(F)cc2)C1` [Compound 123, N-ethyl-N-((1S,3R)-3-((4-fluorobenzyl)amino)cyclohexyl)-1H-indole-2-carboxamide]: above 7.00.
The same measure for `CCN(C(=O)c1nc2cc(C#N)ccc2[nH]1)[C@H]1CCC[C@@H](NCc2ccc3ocnc3c2)C1` [Compound 529]: above 7.00; for `CCN(C(=O)c1cc2ccccc2[nH]1)C1CCC[C@@H](NCc2ccc(F)cc2)C1` (stereo partly shown) [Compound 111]: above 7.00.
The same measure for `O=C(c1cc2ccccc2[nH]1)N(CC(F)(F)F)C1CCC[C@H](NCc2cccnc2)C1` (stereo partly shown) [Compound 174]: below 5.70; for `CCN(C(=O)c1nc2cc(F)ccc2[nH]1)[C@H]1CCC[C@@H](NCc2oc3ccccc3c2C#N)C1` [compound 510]: above 7.00.
For `CCN(C(=O)c1nc2ccccc2[nH]1)[C@H]1CCC[C@@H](NCc2cc(C(F)(F)F)on2)C1` [Compound 554, N-ethyl-N-((1S,3R)-3-(((5-(trifluoromethyl)isoxazol-3-yl)methyl)amino)cyclohexyl)-1H-benzo[d]imidazole-2-carboxamide], the pIC50 is above 7.00.
For `CCN(C(=O)c1nc2cc(C#N)ccc2[nH]1)[C@H]1CCC[C@@H](NCc2oc3ccccc3c2C)C1` [Compound 518], the pIC50 was above 7.00.
As for `CCN(C(=O)c1cc2ncccc2[nH]1)[C@H]1CCC[C@H](NC2(c3ccccc3)CC2)C1` [Compound 420], the pIC50 is 5.70 to 6.30.
For `CCN(C(=O)c1cc2ccccc2[nH]1)[C@H]1CCC[C@H](NCc2cccnc2)C1` [Compound 109], the pIC50 is 5.70 to 6.30.
Under `CCN(C(=O)c1nc2c(OC)cccc2[nH]1)[C@H]1CCC[C@@H](NCc2ccccc2)C1` [Compound 484] stands above 7.00; under `CCN(C(=O)c1cc2ccccc2[nH]1)[C@H]1CCC[C@@H](N[C@H](c2cncnc2)C(F)(F)F)C1` (single isomer, unassigned) [Compound 412], 6.30 to 7.00.
For `CCN(C(=O)c1cc2ccccc2[nH]1)C1CCC[C@H](NCc2ccc(F)cc2)C1` (stereo partly shown) [Compound 110], the pIC50 was 6.30 to 7.00.
